Experimental data as given in US9422254B2, “Methoxyacrylate-based fungicide and methods for preparing and using the same” (priority 2008, dated 2016).

Test system: Rhizoctonia solani (rice sheath blight)
Test: microbe, parasite or virus in culture
Format: cell-based
Settings: read-out: Inhibition rate (%)

CO/C=C(/C(=O)OC)c1ccccc1CSc1nc2cc(OC)ccc2s1 [Compound of Formula (I), (E)-methyl 3-methoxy-2-(2-((5-methoxy-benzothiazol-2-ylthio)methyl)phenyl)acrylate]
inhibition at 0.3 µg/mL (0.3 mg/L): 42.7% | inhibition at 3 µg/mL (3 mg/L): 62.1% | inhibition at 30 µg/mL (30 mg/L): 68.9%
